“Also recorded” adds a separate entry of the source.
What was measured:
human moDC = test: IL-1β secretion by human moDC with surfactant formulations of 22:0 Lyso PC; type: cell-based
Procedure: Formulation of 22:0 Lyso PC with poloxamers. […] 22:0 Lyso PC was resuspended in the surfactant solution and agitated at 4° C. for an hour. Solutions were then brought to room temperature to form micelles. Using 10× concentrated PBS, salts were added to the solution to stabilize molecular interactions and provide physiologically relevant osmolarity. Lipid solutions were either left unfiltered or filtered through a pore size of 0.45 um to remove insoluble lipid flakes. Lipids were further diluted and added onto human moDC cell cultures along with 1 ug/mL R848. Targeted lipid concentrations were based on the scenario where the lipid is fully bio-available prior to filtration. However, filtration of insoluble lipid reduces the bio-available supply of lipid. Thus, IL-1beta as a measure of hyperactivity can be used as an indicator of 22:0 Lyso PC incorporation into micelles and thus into solution. One day after hyperactivation, cell culture supernatants are collected to measure cytokine secretion, and cells are used to measure viability via Cell Titer-Glo.
Salts are added to the solution to stabilize the molecular interactions and bring the solution to a physiologically relevant osmolarity. The solutions are then either left unfiltered or filtered through a pore size of 0.45 um to remove insoluble lipid flakes or particle aggregates. Lipids are then added to human moDC cultures with 1 ug/mL R848. One day after hyperactivation, cell culture supernatants were collected to measure cytokine secretion, and cells were used to measure cell viability.
Data from these studies in poloxamer formulation are shown from one human moDC donor sample. Individual data points represent the mean of triplicates.

[1] = test system: canine peripheral blood mononuclear cells (PBMCs); test: IL-1β secretion by canine PBMCs (ELISA); type: cell-based; settings: lipid 82.5 μM combined with R848 1 μg/mL, 2 days
Procedure: Isolation of PBMCs from Whole Blood. PBMCs were isolated from whole blood using density gradient centrifugation with Ficoll-Paque PLUS (Cytivia). Whole blood was diluted 1:1 with PBS, layered on top of Ficoll-Paque PLUS and centrifuged at 1000×g for 30 minutes at room temperature. PBMCs were collected, washed twice in PBS, and incubated with Ack lysis buffer (Lonza) to remove any remaining red blood cells.
Cell Culture and Stimulation. […] Cells were plated at 1×10^5 (canine cells) or 1×10^6 (human cells) per well in 96-well flat bottom tissue culture plates. Lyophilized Vaccigrade R848 (Invivogen) was reconstituted and diluted according to manufacturer's recommendations and added to cells at a final concentration of 1 μg/mL.
Quantification of Cytokine Secretion. IL-1β secretion from human PBMCs was assessed using one of the following kits: ELISA MAX Deluxe Set Human IL-1β kit (Biolegend), Invitrogen Human IL-1β kit, or the Lumit™ Human IL-1β Immunoassay (Promega). IFNγ secretion from human PBMCs was assessed using the ELISA MAX Deluxe Set Human IFNγ (Biolegend) and TNFα secretion from human PBMCs was assessed using the Human TNFα Uncoated ELISA kit (Invitrogen). […] IL-1β secretion from canine PBMCs was assessed using the Canine IL-1β/IL-1F2 DuoSet ELISA (R&D) according to manufacturer's instructions with the following modifications: i) total sample+buffer volume for incubation was reduced from 100 μL to 50 μL; ii) sample incubation was completed overnight at 4° C. on an orbital shaker. For all ELISAs, absorbance was measured at 450 nm, with a 570 nm correction, using a Spectramax M5e plate reader (Molecular Devices). For Lumit™ assays, luminescence was measured on all wavelengths using a Spectramax M5e plate reader (Molecular Devices) with an integration time of 500 ms. […]

[2] = test system: murine, FLT3L-differentiated cDC1 and cDC2 cells; test: Flow cytometry of surface markers on murine cDC1 and cDC2; type: cell-based, mouse
Procedure: Murine FLT3L-differentiated, bone marrow-derived DC (BMDC) generation. Leg femur and tibia were removed from mice, cut with scissors and flushed into sterile tubes. Bone marrow suspension was treated with ACK for 1 minute, then passed through a 40 um cell strainer. Cells were counted and resuspended in media consisting of complete IMDM containing 10% FBS, penicillin and streptomycin, and supplements of L-glutamine and sodium pyruvate (I10). Cells were then plated at 5E6 bone marrow cells per well in a P12 plate. Recombinant mouse FLT3L (Miltenyi) was added to cultures at 200 ng/mL. Differentiated cells were used for subsequent assays on day 9. The efficiency of differentiation was monitored by flow cytometry using BD Symphony A3, and CD11c+MHC-II+ cells were routinely above 80% of living cells. For each experiment, five mice were used to collect BM and to generate DCs.
Murine FLT3L-differentiated BMDC (FLT3L-BMDC) hyperactivation. BMDCs were washed with PBS and re-plated in FLT3L-containing 110 at a concentration of 1.5×10^5 cells/well. Stimuli were added to cultures at indicated concentrations for a final volume of 200 uL/well. Twenty-four hours post-stimulation, cell culture supernatant was collected after centrifugation and stored at −20° C. to measure cytokine secretion. IL-1b, IL-6, IL-12p40, and TNF-alpha ELISA were performed using eBioscience Ready-SET-Go! (now ThermoFisher) ELISA kits according to the manufacturer's protocols. Cell viability was measured using Promega's Cell Titer-Glo reagent kits.
Flow cytometry. After FcR blockade, treated FLT3L-BMDCs were washed and stained in PBS with Live Dead Fixable dye (ThermoFisher) for 20 minutes at 4° C. Cells were then washed again and stained for 20 minutes at 4° C. in MACS buffer (PBS with 1% FCS and 2 mM EDTA) containing the following fluorescently conjugated antibodies purchased from BioLegend: anti-CD11c, anti-I-A/I-E, anti-H-2Kb, anti-SIRPa, anti-CD24, anti-CD40, anti-CD45R, anti-CXCL16 and anti-CCR7. Data were acquired on a BD FACS Symphony (Becton-Dickenson). Data were analyzed using FlowJo software (Tree Star). […]

Structure (SMILES): CCCCCCCCCCCCCCCCCCCCCC(=O)OC[C@@H](O)COP(=O)([O-])OCC[N+](C)(C)C [22:0 LYSO PC, 1-behenoyl-2-hydroxy-sn-glycero-3-phosphocholine]
- IL-1beta secretion, effect of 0.45 um filtration (in words) (human moDC; filtered vs unfiltered lipid + R848): significantly decreased the IL-1beta secreted by moDC
- IL-1beta secretion (in words) (human moDC; methanol or ethanol solvent evaporation with KP407, filtered, target 82.5 uM + R848): further increased
- IL-1beta secretion (in words) (human moDC; mixed with KP407 (5% in PBS), 0.45 um filtered, target 82.5 uM + R848): increased IL-1beta secretion
- IL-1beta secretion (in words) (human moDC; not incorporated into KP407 micelles, 0.45 um filtered, target 82.5 uM + R848): minimal amounts of IL-1beta
- IL-1beta secretion (in words) (human moDC; surfactant formulations left unfiltered + R848): high IL-1beta secretion
- IL-1β secretion (in words) [1]: comparable or higher levels of IL-1β compared to every other stimuli tested; also recorded: hyperactivated to a greater extent
- CD40 expression (in words) ([2]; R848 + 41 uM lipid in 5% KP407, cDC1 and cDC2): strongly enhanced
- MHC class I expression (in words) ([2]; R848 + lipid vs R848 alone): enhanced MHC class I expression on both cDC1 and cDC2 subsets
- CCR7 expression (in words) ([2]; cDC1, R848 + lipid in KP407 formulation): increased their CCR7 expression significantly compared to R848 alone

From patent US20240197869A1, “HYPERACTIVATORS OF MAMMALIAN DENDRITIC CELLS” (Corner Therapeutics, Inc., priority 2021, published 2024)
